Consider 32 molecules from patent publication US8916599B2, “1H-benz imidazole-5-carboxamides as anti-inflammatory agents” (Orexo AB, priority 2008, dated 2014).

SMILES strings stand for the structures.

For one assay, the target named is T1, recombinant human mPGES-1 (Homo sapiens, UniProt O14684).
T1 construct: made in house; host or cells: Rosetta E. coli (microsomal/membrane fraction)
T1 sequence (O14684 1-152): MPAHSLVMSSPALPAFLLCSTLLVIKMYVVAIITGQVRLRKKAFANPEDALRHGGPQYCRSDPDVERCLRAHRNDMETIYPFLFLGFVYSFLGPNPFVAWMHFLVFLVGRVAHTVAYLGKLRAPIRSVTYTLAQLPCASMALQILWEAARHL
The assay can be described thus: mPGES-1 inhibition test (microsomes, PGH2 substrate, HTRF detection of PGE2). To be noted: inhibition of mPGES-1 at 1 μM (marked in cell). Format: biochemical. The method in brief:
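Microsomes from E. coli expressing recombinant human mPGES-1 in 0.1 M KPi pH 7.4 with 2.5 mM GSH were preincubated with inhibitor 25 min at room temperature. PGH2 was then added, and the reaction was stopped after 1 min with acidified FeCl2. PGE2 was quantified by HTRF (665/620 nm ratio) against a synthetic PGE2 standard curve.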
On the technique in general: Time-resolved FRET reads energy transfer from a long-lived donor to a nearby acceptor.
By inhibition is commonly meant the share of the control response that was lost under treatment. `CC(C)Oc1cc2c(cc1C(=O)NC1CCC3(CC1)CC3)nc(Nc1c(Cl)ccc(Cl)c1F)n2C` [Example 648, 2-(3,6-Dichloro-2-fluoro-phenylamino)-6-isopropoxy-N-(spiro[2.5]oct-6-yl)-1-methyl-1H-benzimidazole-5-carboxamide]: the inhibition at 1 µM is 100%.
Turning to `COc1cc2c(cc1C(=O)NC1CCC(C)(C)CC1)nc(Nc1c(F)c(F)cc(F)c1F)n2C` [Example 652, 2-(2,3,5,6-tetrafluoro-phenylamino)-6-methoxy-N-(4,4-dimethy-cyclohex-1-yl)-1-methyl-1H-benzimidazole-5-carboxamide], the inhibition at 1 µM turned out to be 94%.

Still in this assay, the particulars now being: inhibition of mPGES-1 at 10 μM.
As for `Cc1cccc(C)c1Nc1nc2cc(C(=O)Nc3ccccc3)ccc2[nH]1` [Example 13, 2-(2,6-Dimethyl-phenylamino)-1H-benzimidazole-5-carboxylic acid-phenylamide], the inhibition at 10 µM amounted to 100%.
`Cc1cc2nc(NC(=O)c3ccc4[nH]c(Nc5c(Cl)cccc5Cl)nc4c3)[nH]c2cc1C` [Example 314, 2-(2,6-Dichloro-phenylamino)-1H-benzimidazole-5-carboxylic acid (5,6-dimethyl-1H-benzimidazol-2-yl)-amide]: the inhibition at 10 µM worked out at 97%.
`Cn1c(Nc2c(Cl)cccc2Cl)nc2cc(C(=O)NCC3CCCO3)ccc21` (centres unmarked) [Example 261, 2-(2,6-Dichloro-phenylamino)-1-methyl-1H-benzimidazole-5-carboxylic acid (tetrahydro-furan-2-ylmethyl)-amide]: the inhibition at 10 µM worked out at 92%.
With `Cn1c(Nc2c(F)cccc2Cl)nc2cc(C(=O)Nc3ccc(Br)cc3)ccc21` [Example 381, N-(4-Bromophenyl)-2-(2-chloro-6-fluorophenylamino)-1-methyl-1H-benzimidazole-5-carboxamide], the inhibition at 10 µM came out at 100%.
With `Cc1nc(NC(=O)c2ccc3[nH]c(Nc4c(Cl)cccc4Cl)nc3c2)sc1C` [Example 77, 2-(2,6-Dichloro-phenylamino)-1H-benzimidazole-5-carboxylic acid (4,5-dimethyl-thiazol-2-yl)-amide], the inhibition at 10 µM stood at 96%.
In the case of `Cc1ccc(NC(=O)c2ccc3[nH]c(Nc4c(Cl)cccc4Cl)nc3c2)nc1` [Example 321, 2-(2,6-Dichloro-phenylamino)-1H-benzimidazole-5-carboxylic acid (5-methyl-pyridin-2-yl)-amide], the inhibition at 10 µM worked out at 93%.
On to `Cn1c(Nc2c(F)cccc2C(F)(F)F)nc2cc(C(=O)Nc3ccc(Br)cc3)ccc21` [Example 358, N-(4-Bromophenyl)-2-(2-fluoro-6-trifluoromethyl-phenylamino)-1-methyl-1H-benzimidazole-5-carboxamide], for which the inhibition at 10 µM amounted to 100%.
Consider `COc1cc2c(cc1C(=O)N[C@H]1CC[C@H](C(F)(F)F)CC1)nc(Nc1c(Cl)cccc1Cl)n2C` [Example 369, 2-(2,6-Dichlorophenylamino)-6-methoxy-1-methyl-N-((1r,4r)-4-trifluoromethyl-cyclohexyl)-1H-benzimidazole-5-carboxamide], for which the inhibition at 10 µM came to 100%.
Turning to `CCc1ccnc(NC(=O)c2ccc3[nH]c(Nc4c(Cl)cccc4Cl)nc3c2)c1` [Example 120, 2-(2,6-Dichloro-phenylamino)-1H-benzimidazole-5-carboxylic acid (4-ethyl-pyridin-2-yl)-amide], the inhibition at 10 µM is 96%.
In the case of `Cc1nc(NC(=O)c2ccc3c(c2)nc(Nc2c(Cl)cccc2Cl)n3C)cc2c1CCCC2` [Example 139, 2-(2,6-Dichloro-phenylamino)-1-methyl-1H-benzimidazole-5-carboxylic acid (1-methyl-5,6,7,8-tetrahydro-isoquinolin-3-yl)-amide], the inhibition at 10 µM was 98%.
Regarding `C#Cc1ccccc1Nc1nc2cc(C(=O)Nc3ccc(Br)cc3)ccc2n1C` [Example 538, N-(4-Bromophenyl)-2-(2-ethynylphenylamino)-1-methyl-1H-benzimidazole-5-carboxamide], the inhibition at 10 µM turned out to be 85%.
As to `CCC1CCC(NC(=O)c2cc3nc(Nc4c(F)cccc4Cl)n(C)c3cc2F)CC1` (centres unmarked) [Example 362, N-(4-Ethylcyclohexyl)-2-(2-chloro-6-fluorophenylamino)-6-fluoro-1-methyl-1H-benzimidazole-5-carboxamide], the inhibition at 10 µM was 100%.
Consider `O=C(Nc1cc(Cl)ccn1)c1ccc2c(c1)nc(Nc1c(Cl)cccc1Cl)n2CCC(=O)N1CCOCC1` [Example 264, 2-(2,6-Dichloro-phenylamino)-1-(3-morpholin-4-yl-3-oxo-propyl)-1H-benzimidazole-5-carboxylic acid (4-chloro-pyridin-2-yl)-amide], for which the inhibition at 10 µM came out at 90%.
As for `COc1ccnc(NC(=O)c2ccc3[nH]c(Nc4c(Cl)cccc4Cl)nc3c2)c1` [Example 188, 2-(2,6-Dichloro-phenylamino)-1H-benzimidazole-5-carboxylic acid (4-methoxy-pyridin-2-yl)-amide], the inhibition at 10 µM came out at 96%.
Turning to `CCc1cccc(CC)c1Nc1nc2cc(C(=O)Nc3ccc(Br)cc3)ccc2[nH]1` [Example 114, 2-(2,6-Diethyl-phenylamino)-1H-benzimidazole-5-carboxylic acid (4-bromo-phenyl)-amide], the inhibition at 10 µM is 80%.
As for `Cc1cc(C)nc(NC(=O)c2ccc3[nH]c(Nc4c(Cl)cccc4Cl)nc3c2)c1` [Example 117, 2-(2,6-Dichloro-phenylamino)-1H-benzimidazole-5-carboxylic acid (4,6-dimethyl-pyridin-2-yl)-amide], the inhibition at 10 µM stood at 100%.
As for `CNC(=O)c1ccc(Cl)c(Nc2nc3cc(C(=O)Nc4ccc(Br)cc4)ccc3n2C)c1` [Example 574, N-(4-Bromophenyl)-2-(2-chloro-5-(methylcarbamoyl)-phenylamino)-1-methyl-1H-benzimidazole-5-carboxamide], the inhibition at 10 µM came out at 56%.
On to `CCCC[C@H](C)NC(=O)c1cc2nc(Nc3c(Cl)cccc3Cl)[nH]c2cc1F` [Example 443, (S)-2-(2,6-Dichlorophenylamino)-6-fluoro-N-(hexan-2-yl)-1H-benzimidazole-5-carboxamide], for which the inhibition at 10 µM is 100%.
For `O=C(Nc1cc(Cl)ccn1)c1ccc2[nH]c(Nc3c(Cl)cccc3Cl)nc2c1` [Example 75, 2-(2,6-Dichloro-phenylamino)-1H-benzimidazole-5-carboxylic acid (4-chloro-pyridin-2-yl)-amide], the inhibition at 10 µM stood at 95%.
As to `CCOc1cc2[nH]c(Nc3c(Cl)ccc(Cl)c3F)nc2cc1C(=O)N[C@H]1CC[C@H](C(F)(F)F)CC1` [Example 599, 2-(3,6-Dichloro-2-fluoro-phenylamino)-6-ethoxy-N-(trans-4-trifluoromethyl-cyclohex-1-yl)-1H-benzimidazole-5-carboxamide], the inhibition at 10 µM amounted to 92%.
On to `CCn1c(Nc2c(Cl)cccc2Cl)nc2cc(C(=O)Nc3cc(Cl)ccn3)ccc21` [Example 277, 2-(2,6-Dichloro-phenylamino)-1-ethyl-1H-benzimidazole-5-carboxylic acid (4-chloro-pyridin-2-yl)-amide], for which the inhibition at 10 µM was 99%.
Regarding `Cn1c(Nc2c(Cl)cccc2Cl)nc2cc(C(=O)NCc3ccncc3)ccc21` [Example 262, 2-(2,6-Dichloro-phenylamino)-1-methyl-1H-benzimidazole-5-carboxylic acid (2-pyridin-4-yl-methyl)-amide], the inhibition at 10 µM was 61%.
Consider `Cc1ccc(NC(=O)c2ccc3c(c2)nc(Nc2c(Cl)cccc2Cl)n3C)nc1` [Example 327, 2-(2,6-Dichloro-phenylamino)-1-methyl-1H-benzimidazole-5-carboxylic acid (5-methyl-pyridin-2-yl)-amide], for which the inhibition at 10 µM stood at 100%.
As to `COc1cc2c(cc1C(=O)Nc1ccc(Br)cc1)nc(Nc1c(Cl)cccc1Cl)n2C` [Example 359, 2-(2,6-Dichlorophenylamino)-6-methoxy-1-methyl-N-(4-bromo-phenyl)-1H-benzimidazole-5-carboxamide], the inhibition at 10 µM came to 100%.
On the same count and under the same terms, the result for `Cn1c(Nc2c(Cl)ccc(Cl)c2F)nc2cc(C(=O)NC3CCC4(CC3)CC4)c(F)cc21` [Example 606, 2-(3,6-Dichloro-2-fluoro-phenylamino)-6-fluoro-N-(spiro[2.5]oct-6-yl)-1-methyl-1H-benzimidazole-5-carboxamide] reads 94%.
Consider `CCC1CCC(NC(=O)c2cc3nc(Nc4c(Cl)cccc4Cl)n(C)c3cc2F)CC1` (centres unmarked) [Example 437, 2-(2,6-Dichlorophenylamino)-N-(4-ethylcyclohexyl)-6-fluoro-1-methyl-1H-benzimidazole-5-carboxamide], for which the inhibition at 10 µM stood at 97%.
Same read-out and setting: then `Cn1c(Nc2c(Cl)cccc2Cl)nc2cc(C(=O)Nc3cc(C(C)(C)C)ccn3)ccc21` [Example 464, N-(4-tert.-Butylpyridin-2-yl)-2-(2,6-dichlorophenylamino)-1-methyl-1H-benzimidazole-5-carboxamide], with 99%; and `CC(=O)NCCCn1c(Nc2c(Cl)cccc2Cl)nc2cc(C(=O)Nc3cc(Cl)ccn3)ccc21` [Example 268, 2-(2,6-Dichloro-phenylamino)-1-(3-acetylamino-propyl)-1H-benzimidazole-5-carboxylic acid (4-chloro-pyridin-2-yl)-amide], with 94%.
With `O=C(NCC1CCCOC1)c1ccc2[nH]c(Nc3c(Cl)cccc3Cl)nc2c1` (centres unmarked) [Example 227, 2-(2,6-Dichloro-phenylamino)-1H-benzimidazole-5-carboxylic acid (tetrahydro-pyran-3-ylmethyl)-amide], the inhibition at 10 µM was determined as 77%.
With `O=C(Nc1cc(Cl)ccc1Cl)c1ccc2[nH]c(Nc3c(Cl)cccc3Cl)nc2c1` [Example 281, 2-(2,6-Dichloro-phenylamino)-1H-benzimidazole-5-carboxylic acid (2,5-dichloro-phenyl)-amide], the inhibition at 10 µM stood at 100%.
